In patent US11235020B2, “Methods and compositions for inhibiting glyoxalase 1 (GLO1)” (priority 2013, dated 2022):
“And” between values parts separate entries of the source, which are not always exact repeats. Equal values may be shown once. Read-outs that look alike come from different tables or passages of the source.

Experiments:
[1] = HPLC measurement of MG concentration in whole brain after i.p. MG; assay type: in vivo, mouse; conditions: for concentration at 10 min: intraperitoneal, read-out: Estimated MG concentration; for concentration at 10 min / MG concentration (nmol/g tissue): brain; for MG concentration (nmol/g tissue): 10 min post-injection
Experimental: MG concentration was measured by HPLC as previously described with modifications (Dhar 2009). Tissue was homogenized in 50 mM sodium phosphate buffer (pH 6.6) and 0.8N perchloric acid. It was then incubated on ice for 10 minutes and centrifuged. The supernatant was filtered, and MG was derivatized with 10 mM o-phenylenediamine to form 2-methylquinoxaline (2-MQ). 5-methylquinoxaline (5-MQ, 15 μM) was spiked into each sample as an internal standard. 2-MQ was quantified using an HP 1100 HPLC system (Agilent) with a Nova-Pak C18 column (Waters Corporation). Column effluent was monitored at 315 nm. 2-MQ concentration was determined by comparison to 2-MQ standards of known mass. Quantification of 2-MQ was corrected for losses by comparison with 5-MQ. MG concentration was calculated as 2-MQ/tissue weight. Treatment: Unless otherwise noted, crude MG was used for all behavioral experiments. MG was obtained from Sigma-Aldrich, filter-sterilized (0.22 μm filter, Millipore), diluted in vehicle (0.9% NaCl), and adjusted to pH 7.4. Mice were injected i.p. with 10 ml/kg MG or vehicle. HPLC: Ten minutes post-injection, mice were sacrificed, and brains were rapidly dissected and flash-frozen on dry ice. MG concentration was measured as described above.

[2] = tested on: anxiety-like behavior and locomotion in mice; assay: Open field (OF) test; assay type: in vivo, mouse
Experimental: OF test: Mice were placed into the center of the OF, and activity was monitored for five to ten minutes. The apparatus was illuminated to approximately 40 lux. Data were collected and processed using the manufacturer's software (AccuScan Instruments).
OF test: Ten minutes post-injection, mice were placed into the center of the OF. The apparatus was illuminated to approximately 40 lux. Behavior was measured as described above.
OF test replication studies: Ten to twenty minutes post-injection, mice were tested in the OF for five to ten minutes. In some experiments, behavior was scored as described above. In other experiments, mice were tested in the OF, and behavior was automatically scored by the Noldus Ethovision System. For mice tested in the Noldus system, the apparatus was illuminated to approximately 1,000 lux.
Chronic MG administration: For five days, mice were injected twice daily with vehicle or MG (4 mg/kg). Twelve hours after the final injection, mice were tested in the OF as described above.
Pure MG: Pure MG was obtained from Dr. John Termini at the City of Hope, Duarte, Calif. It was administered at the indicated doses by i.p. injection. Mice were tested as described above.
OF test: Two hours post-injection, mice were tested in the OF test as described above. The center size was 10×10 cm. The apparatus was illuminated to approximately 40 lux.

[3] = tested on: motor coordination in mice; assay: Balance beam test; assay type: in vivo, mouse; conditions: 300 mg/kg i.p., B6 mice
Experimental: The balance beam was 97 cm×9.5 mm and elevated to 46 cm. Mice were tested on the balance beam, and missteps were counted.
Balance beam: The balance beam test was performed as described above. Ten minutes post-injection, mice were tested on the balance beam, and missteps were recorded.

[4] = tested on: GABAA receptors in macropatches excised from CGN; assay: Macropatch recording from CGN; assay type: cell-based, rat
Experimental: Macropatch recording: Macropatch recording was performed with 1.5-2 MΩ electrodes filled with bath solution. The inside of excised patches was perfused with electrode solution containing the indicated reagents. SR was added to the electrode where indicated.

sodium currents = assay: Voltage-gated sodium currents in CGN; assay type: cell-based, rat; conditions: 10 μM MG
Experimental: Sodium currents: Sodium currents were studied as previously described (Plant 2006) using a bath solution containing 130 mM NaCl, 5 mM CsCl, 2 mM CaCl2, 1.2 mM MgCl2, 5 mM glucose, and 10 mM HEPES adjusted to pH 7.4 with NaOH. 500 nM tetrodotoxin (Sigma) was included in the bath […]. The electrode solution contained 60 mM CsCl, 80 mM CsF, 10 mM EGTA, 1 mM CaCl2, 1 mM MgCl2, 5 mM Na2ATP, and 10 mM HEPES adjusted to pH 7.4 with CsOH. All voltage-gated currents were studied following a P/5 leak subtraction protocol, and voltage-clamp errors were minimized with 80% series resistance compensation.

potassium currents = assay: Potassium currents in CGN; assay type: cell-based, rat; conditions: 10 μM MG
Source text: (§1) Potassium currents: Voltage-gated potassium channel currents were evoked using a previously reported protocol with modifications (Plant 2006). The whole voltage-gated potassium current, IK+, and the delayed rectifier current, IDR were isolated with two voltage protocols. First, IK+ was evoked by 250 ms test pulses to between −80 and 90 mV from −80 mV following a 250 ms pre-pulse to −140 mV. Then, the protocol was repeated using a −50 mV pre-pulse to inactivate IK+ and isolate IDR. The inactivating component of the current, IKA, was isolated by subtracting IDR from IK+ recorded in the same cells. The standing outward potassium leak current, IKso, and the inwardly rectifying potassium current, IKIR, were studied as previously reported with modifications (Plant 2002). Cells were held at −20 mV, and the membrane potential was ramped to −120 mV over a period of 100 ms before returning to −20 mV. Ramp hyperpolarizations were repeated every 20 seconds.

GABAB receptors = molecular target: T1, GABAB receptors (Rattus norvegicus, UniProt Q9Z0U4); assay: GABAB receptor activation (IKIR) in CGN; assay type: cell-based; conditions: 10 μM MG in the presence of SR
T1 construct: endogenous in cells; host or cells: primary rat cerebellar granule neurons
T1 sequence (Q9Z0U4 17-960 limits assumed): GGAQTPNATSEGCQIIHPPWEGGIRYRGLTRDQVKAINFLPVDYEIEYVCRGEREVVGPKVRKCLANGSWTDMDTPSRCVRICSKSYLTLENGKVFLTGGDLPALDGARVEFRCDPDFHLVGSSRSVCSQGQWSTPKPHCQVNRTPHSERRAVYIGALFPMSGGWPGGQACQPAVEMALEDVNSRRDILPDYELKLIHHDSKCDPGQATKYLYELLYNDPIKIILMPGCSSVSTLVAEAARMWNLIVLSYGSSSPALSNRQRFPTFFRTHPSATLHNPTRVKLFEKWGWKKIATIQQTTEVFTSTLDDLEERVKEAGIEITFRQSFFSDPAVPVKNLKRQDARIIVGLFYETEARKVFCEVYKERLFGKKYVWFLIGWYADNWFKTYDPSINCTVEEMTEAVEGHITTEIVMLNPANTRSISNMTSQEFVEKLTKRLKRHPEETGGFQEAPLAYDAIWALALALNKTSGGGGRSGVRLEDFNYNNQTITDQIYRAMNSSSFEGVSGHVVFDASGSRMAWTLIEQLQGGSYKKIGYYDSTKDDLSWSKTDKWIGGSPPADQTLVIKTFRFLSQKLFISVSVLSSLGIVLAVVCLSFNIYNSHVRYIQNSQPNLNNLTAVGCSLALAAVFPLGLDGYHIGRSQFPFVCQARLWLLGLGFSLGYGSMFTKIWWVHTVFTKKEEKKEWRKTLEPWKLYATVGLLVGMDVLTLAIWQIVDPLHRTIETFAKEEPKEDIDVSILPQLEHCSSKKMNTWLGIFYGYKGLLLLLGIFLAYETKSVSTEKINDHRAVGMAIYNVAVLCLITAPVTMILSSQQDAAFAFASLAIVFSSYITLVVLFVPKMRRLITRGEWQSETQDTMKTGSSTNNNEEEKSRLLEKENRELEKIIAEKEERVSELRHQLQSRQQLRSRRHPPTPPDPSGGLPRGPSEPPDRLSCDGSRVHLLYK
T1 sequence (O88871 41-940 partner): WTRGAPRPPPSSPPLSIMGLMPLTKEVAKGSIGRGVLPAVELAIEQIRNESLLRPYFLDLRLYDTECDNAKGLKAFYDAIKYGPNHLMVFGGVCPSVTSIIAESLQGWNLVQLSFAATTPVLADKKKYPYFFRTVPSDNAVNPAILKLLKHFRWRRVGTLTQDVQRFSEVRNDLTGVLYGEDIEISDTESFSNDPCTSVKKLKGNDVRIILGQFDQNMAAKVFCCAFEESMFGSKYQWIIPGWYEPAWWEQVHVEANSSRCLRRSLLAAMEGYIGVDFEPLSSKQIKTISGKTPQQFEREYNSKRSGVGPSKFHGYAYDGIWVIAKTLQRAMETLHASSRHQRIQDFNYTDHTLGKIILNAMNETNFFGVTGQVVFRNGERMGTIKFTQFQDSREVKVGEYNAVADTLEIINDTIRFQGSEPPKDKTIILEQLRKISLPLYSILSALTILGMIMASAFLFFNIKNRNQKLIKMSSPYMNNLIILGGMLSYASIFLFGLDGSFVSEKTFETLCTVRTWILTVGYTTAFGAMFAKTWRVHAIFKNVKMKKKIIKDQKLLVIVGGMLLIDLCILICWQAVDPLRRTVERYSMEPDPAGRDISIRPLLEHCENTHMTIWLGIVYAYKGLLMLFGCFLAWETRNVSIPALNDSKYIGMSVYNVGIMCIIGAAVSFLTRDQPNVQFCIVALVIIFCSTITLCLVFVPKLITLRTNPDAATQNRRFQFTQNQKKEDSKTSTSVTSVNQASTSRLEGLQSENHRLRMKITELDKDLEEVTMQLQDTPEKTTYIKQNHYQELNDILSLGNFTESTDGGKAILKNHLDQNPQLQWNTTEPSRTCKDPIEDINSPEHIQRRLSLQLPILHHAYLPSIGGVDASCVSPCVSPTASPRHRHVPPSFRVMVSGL
Source text: as §1

[5] = tested on: depression-like behavior in mice; assay: Tail suspension test (TST); assay type: in vivo, mouse; conditions: MG 50 mg/kg i.p., acute, 10 min before test, B6 mice
Experimental: Mice were suspended by their tails using adhesive tape attached to a bar elevated approximately 46 cm above a table. The apparatus was illuminated to approximately 1,000 lux. Mice were tested individually, and time spent immobile was scored manually for six minutes. For MG studies, mice were treated with vehicle (0.9% saline) or crude MG (Sigma-Aldrich, 50 mg/kg) by i.p. injection ten minutes before the test. Behavior was scored for five minutes.

mice = assay: Observation of sedation or gross deficits in treated mice; conditions: MG 300 mg/kg, WT B6 mice, data not shown
[6] = MG 50 mg/kg i.p., male WT B6 mice, 10 min post-injection

CC(=O)C=O [MG, methylglyoxal]
concentration at 10 min ([1]; B6, mouse, MG 50 mg/kg i.p. (anxiolytic dose)): 5.94 µM | concentration at 10 min ([1]; B6, mouse, MG 100 mg/kg i.p.): 6.54 µM | concentration at 10 min ([1]; B6, mouse, MG 300 mg/kg i.p.): 8.26 µM | expected increase of the concentration of MG in the brain ([1]; MG 50 mg/kg): approximately 16% | MG concentration (nmol/g tissue) ([1]; MG 50 mg/kg i.p.): 5.66 ± 0.36 nmol/g tissue | MG concentration (nmol/g tissue) ([1]; MG 100 mg/kg i.p.): 6.23 ± 0.26 nmol/g tissue | expected increase of the concentration of MG in the brain ([1]; MG 200 mg/kg): ~43% | MG concentration (nmol/g tissue) ([1]; MG 300 mg/kg i.p.): 7.87 ± 0.56 nmol/g tissue | concentration at 10 min ([1]; mouse, MG 50 mg/kg i.p. (anxiolytic dose)): ~6 µM | anxiety-like behavior in the OF after chronic treatment ([2]; MG 4 mg/kg i.p. twice daily for five days, tested on the sixth day): significant reduction in anxiety-like behavior | center time in the OF ([2]; MG 50 mg/kg i.p., CD-1 mice): increased center time in the OF | distance traveled in the OF ([2]; MG 50 mg/kg i.p., CD-1 mice): without affecting distance traveled | anxiety-like behavior in the OF in mice with the Glo1 duplication ([2]; MG 50 mg/kg i.p., CD-1 mice with Glo1 duplication): reduced anxiety-like behavior in mice with the Glo1 duplication | distance traveled in the OF [2, 6]: without affecting distance traveled | increase in center time in the OF [2, 6]: approximately 30% | persistence of anxiolytic effect after injection ([2]; MG 50 mg/kg i.p., separate cohorts tested at different intervals): ≤ 20 min | Cohen's d, meta-analysis of anxiolytic effect in the OF test ([2]; MG 50 mg/kg i.p., seven experiments, total n = 181, fixed-effect model): 0.78 and 0.7798 | locomotion in the OF ([2]; MG 100 mg/kg, WT B6 mice): decreased locomotion in the OF | footslips on the balance beam (ataxia) [3]: made more footslips than vehicle-treated mice | latency of inward current after application to the intracellular face ([4]; 10 μM MG): approximately 40 seconds | current on application to the intracellular face of macropatches ([4]; 10 μM, SR 10 μM at the extracellular face (pipette)): elicited an inward current | effect on major sodium currents (sodium currents): did not affect the major sodium currents | effect on potassium currents (potassium currents): did not affect | activation of GABAB receptors (GABAB receptors): did not activate GABAB receptors | duration of immobility in the TST [5]: did not affect the duration of immobility | sedation (mice): caused sedation
